Earlier results, collected in US20040097481A1, “Water-soluble mesoporphyrin compounds and methods of preparation” (priority 2002, published 2004).

Conditions: product of the above-referenced known preparation methods

SMILES: CCC1=C(C)c2cc3[n-]c(cc4[n-]c(cc5nc(cc1n2)C(C)=C5CC)c(C)c4CCC(=O)O)c(CCC(=O)O)c3C.[Cl-].[Cl-].[Sn+4] [stannsoporfin, Tin (IV) mesoporphyrin IX chloride]
- Water solubility: non-water soluble
